# Measurements reported in patent US11358953B2, “Functionalized peptides as antiviral agents” (ENANTA PHARMACEUTICALS, INC., priority 2020, dated 2022).
# Target: SARS-CoV-2 3CL-protease (Severe acute respiratory syndrome coronavirus 2 (2019-nCoV) (SARS-CoV-2), UniProt P0DTD1)
# Assay: SARS-CoV-2 3C-like (3CL) protease fluorescence assay (FRET)
# Assay type: biochemical
# Conditions: recombinant SARS-CoV-2 3CL-protease 10 nM, 30 min preincubation at RT, substrate 40 μM, duplicate
row,Structure (SMILES),IC50
1,"N#C[C@H](C[C@@H]1CCNC1=O)NC(=O)[C@@H]1CCCN1C(=O)c1cc2c(OC(F)F)cccc2[nH]1 [Ex12, (S)—N—((S)-1-cyano-2-((S)-2-oxopyrrolidin-3-yl)ethyl)-1-(4-(difluoromethoxy)-1H-indole-2-carbonyl)pyrrolidine-2-carboxamide]",> 1000 nM
2,"N#C[C@H](C[C@@H]1CCNC1=O)NC(=O)[C@@H]1[C@H]2CCC[C@H]2CN1C(=O)c1cc2c(F)cc(F)cc2[nH]1 [Ex13, (1S,3aR,6aS)—N—((S)-1-cyano-2-((S)-2-oxopyrrolidin-3-yl)ethyl)-2-(4,6-difluoro-1H-indole-2-carbonyl)octahydrocyclopenta[c]pyrrole-1-carboxamide]",100 to 1000 nM
3,"N#C[C@H](C[C@@H]1CCNC1=O)NC(=O)[C@@H]1[C@H]2CCC[C@H]2CN1C(=O)c1cc2c(Cl)cccc2[nH]1 [Ex14, (1S,3aR,6aS)-2-(4-chloro-1H-indole-2-carbonyl)-N—((S)-1-cyano-2-((S)-2-oxopyrrolidin-3-yl)ethyl)octahydrocyclopenta[c]pyrrole-1-carboxamide]",100 to 1000 nM
4,"O=C(NCc1ccccc1)C(=O)[C@H](C[C@@H]1CCNC1=O)NC(=O)[C@@H]1[C@H]2CCC[C@H]2CN1C(=O)c1cc2c(OC(F)F)cccc2[nH]1 [Ex15, (1S,3aR,6aS)—N—((S)-4-(benzylamino)-3,4-dioxo-1-((S)-2-oxopyrrolidin-3-yl)butan-2-yl)-2-(4-(difluoromethoxy)-1H-indole-2-carbonyl)octahydrocyclopenta[c]pyrrole-1-carboxamide]",< 100 nM
5,"CC1(C)[C@@H]2[C@@H](C(=O)N[C@H](C#N)C[C@@H]3CCNC3=O)N(C(=O)c3cc4cc(F)cc(F)c4[nH]3)C[C@@H]21 [Ex16, (1R,2S,5S)—N—((S)-1-cyano-2-((S)-2-oxopyrrolidin-3-yl)ethyl)-3-(5,7-difluoro-1H-indole-2-carbonyl)-6,6-dimethyl-3-azabicyclo[3.1.0]hexane-2-carboxamide]",100 to 1000 nM
6,"CC1(C)[C@@H]2[C@@H](C(=O)N[C@H](C#N)C[C@@H]3CCNC3=O)N(C(=O)c3cc4cc(F)c(F)cc4[nH]3)C[C@@H]21 [Ex17, (1R,2S,5S)—N—((S)-1-cyano-2-((S)-2-oxopyrrolidin-3-yl)ethyl)-3-(5,6-difluoro-1H-indole-2-carbonyl)-6,6-dimethyl-3-azabicyclo[3.1.0]hexane-2-carboxamide]",100 to 1000 nM
7,"CC1(C)[C@@H]2[C@@H](C(=O)N[C@H](C#N)C[C@@H]3CCNC3=O)N(C(=O)c3cc4c(F)cc(F)cc4[nH]3)C[C@@H]21 [Ex18, (1R,2S,5S)—N—((S)-1-cyano-2-((S)-2-oxopyrrolidin-3-yl)ethyl)-3-(4,6-difluoro-1H-indole-2-carbonyl)-6,6-dimethyl-3-azabicyclo[3.1.0]hexane-2-carboxamide]",100 to 1000 nM
8,"N#C[C@H](C[C@@H]1CCNC1=O)NC(=O)[C@@H]1C[C@H](Oc2ccccc2)CN1C(=O)c1cc2c(OC(F)F)cccc2[nH]1 [Ex19, (2S,4S)—N—((S)-1-cyano-2-((S)-2-oxopyrrolidin-3-yl)ethyl)-1-(4-(difluoromethoxy)-1H-indole-2-carbonyl)-4-phenoxypyrrolidine-2-carboxamide]",> 1000 nM
9,"CC1(C)[C@@H]2[C@@H](C(=O)N[C@H](C#N)C[C@@H]3CCNC3=O)N(C(=O)c3cc4c(F)ccc(F)c4[nH]3)C[C@@H]21 [Ex20, (1R,2S,5S)—N—((S)-1-cyano-2-((S)-2-oxopyrrolidin-3-yl)ethyl)-3-(4,7-difluoro-1H-indole-2-carbonyl)-6,6-dimethyl-3-azabicyclo[3.1.0]hexane-2-carboxamide]",100 to 1000 nM
10,"CC1(C)[C@@H]2[C@@H](C(=O)N[C@H](C#N)C[C@@H]3CCNC3=O)N(C(=O)c3cc4c(Cl)cccc4[nH]3)C[C@@H]21 [Ex21, (1R,2S,5S)-3-(4-chloro-1H-indole-2-carbonyl)-N—((S)-1-cyano-2-((S)-2-oxopyrrolidin-3-yl)ethyl)-6,6-dimethyl-3-azabicyclo[3.1.0]hexane-2-carboxamide]",100 to 1000 nM
11,"CC1(C)[C@@H]2[C@@H](C(=O)N[C@H](C#N)C[C@@H]3CCNC3=O)N(C(=O)c3cc4c(Cl)cccc4o3)C[C@@H]21 [Ex22, (1R,2S,5S)-3-(4-chlorobenzofuran-2-carbonyl)-N—((S)-1-cyano-2-((S)-2-oxopyrrolidin-3-yl)ethyl)-6,6-dimethyl-3-azabicyclo[3.1.0]hexane-2-carboxamide]",> 1000 nM
12,"CC(C)(C)[C@H](NC(=O)C1CCCC1)C(=O)N1C[C@H]2[C@@H]([C@H]1C(=O)N[C@H](C#N)C[C@@H]1CCNC1=O)C2(C)C [Ex23, (1R,2S,5S)—N—((S)-1-cyano-2-((S)-2-oxopyrrolidin-3-yl)ethyl)-3-((S)-2-(cyclopentanecarboxamido)-3,3-dimethylbutanoyl)-6,6-dimethyl-3-azabicyclo[3.1.0]hexane-2-carboxamide]",< 100 nM
13,"CC(C)(C)[C@H](NC(=O)Cc1ccccc1)C(=O)N1C[C@H]2[C@@H]([C@H]1C(=O)N[C@H](C#N)C[C@@H]1CCNC1=O)C2(C)C [Ex24, (1R,2S,5S)—N—((S)-1-cyano-2-((S)-2-oxopyrrolidin-3-yl)ethyl)-3-((S)-3,3-dimethyl-2-(2-phenylacetamido)butanoyl)-6,6-dimethyl-3-azabicyclo[3.1.0]hexane-2-carboxamide]",< 100 nM
14,"CC(C)(C)[C@H](NC(=O)C1CCCCC1)C(=O)N1C[C@H]2[C@@H]([C@H]1C(=O)N[C@H](C#N)C[C@@H]1CCNC1=O)C2(C)C [Ex25, (1R,2S,5S)—N—((S)-1-cyano-2-((S)-2-oxopyrrolidin-3-yl)ethyl)-3-((S)-2-(cyclohexanecarboxamido)-3,3-dimethylbutanoyl)-6,6-dimethyl-3-azabicyclo[3.1.0]hexane-2-carboxamide]",< 100 nM
15,"CCC(=O)N[C@H](C(=O)N1C[C@H]2[C@@H]([C@H]1C(=O)N[C@H](C#N)C[C@@H]1CCNC1=O)C2(C)C)C(C)(C)C [Ex26, (1R,2S,5S)—N—((S)-1-cyano-2-((S)-2-oxopyrrolidin-3-yl)ethyl)-3-((S)-3,3-dimethyl-2-propionamidobutanoyl)-6,6-dimethyl-3-azabicyclo[3.1.0]hexane-2-carboxamide]",< 100 nM
16,"CC(C)C(=O)N[C@H](C(=O)N1C[C@H]2[C@@H]([C@H]1C(=O)N[C@H](C#N)C[C@@H]1CCNC1=O)C2(C)C)C(C)(C)C [Ex27, (1R,2S,5S)—N—((S)-1-cyano-2-((S)-2-oxopyrrolidin-3-yl)ethyl)-3-((S)-2-isobutyramido-3,3-dimethylbutanoyl)-6,6-dimethyl-3-azabicyclo[3.1.0]hexane-2-carboxamide]",< 100 nM
17,"CC(C)(C)C(=O)N[C@H](C(=O)N1C[C@H]2[C@@H]([C@H]1C(=O)N[C@H](C#N)C[C@@H]1CCNC1=O)C2(C)C)C(C)(C)C [Ex28, (1R,2S,5S)—N—((S)-1-cyano-2-((S)-2-oxopyrrolidin-3-yl)ethyl)-3-((S)-3,3-dimethyl-2-pivalamidobutanoyl)-6,6-dimethyl-3-azabicyclo[3.1.0]hexane-2-carboxamide]",< 100 nM
18,"CC(=O)N[C@H](C(=O)N1C[C@H]2[C@@H]([C@H]1C(=O)N[C@H](C#N)C[C@@H]1CCNC1=O)C2(C)C)C(C)(C)C [Ex29, (1R,2S,5S)-3-((S)-2-acetamido-3,3-dimethylbutanoyl)-N—((S)-1-cyano-2-((S)-2-oxopyrrolidin-3-yl)ethyl)-6,6-dimethyl-3-azabicyclo[3.1.0]hexane-2-carboxamide]",< 100 nM
